Entries after “also recorded” stand apart in the source; their conditions may differ. Read-outs that look alike come from different tables or passages of the source.
How the values were obtained:
[1] = DPPH radical scavenger assay (cell-free); conditions: for DPPH radicals scavenged: 100 µM
Protocol: DPPH radical scavenging activity of compounds was tested as described.
Compounds were dissolved in MeOH, and the solutions (160 µL) were dispensed into wells of a 96-well microplate. In all, 40 µL of the DPPH (Sigma-Aldrich, Steinheim, Germany) solution in MeOH (1.5 × 10^−4 M) was added to each well. Concentrations of compounds in mixture were 10 and 100 µM. The mixture was shaken and left to stand for 30 min, and the absorbance of the resulting solution was measured at 520 nm with a microplate reader MultiscanFC (ThermoScientific, Waltham, MA, USA). Radical scavenging activity of all compounds at 100 µM were presented as percent of MeOH data, and the concentration of DPPH radical scavenging at 50% (EC50) was calculated for some compounds.

[2] = Cell viability (cytotoxicity) assay, MTT; assay type: cell-based; conditions: mouse, Neuro2a neuroblastoma cells; Neuro2a cells, 24 h, MTT
Protocol: (§1) The neuroblastoma cell line Neuro2a was purchased from ATCC. Cells were cultured in DMEM medium containing 10% fetal bovine serum (Biolot, St. Petersburg, Russia) and 1% penicillin/streptomycin (Invitrogen, Carlsbad, CA, USA). Cells were incubated at 37 °C in a humidified atmosphere containing 5% (v/v) CO2.
(§2) Cell suspension (1 × 10^3 cells/well) was incubated with different concentration of compounds for 24 h. After that, cell viability was determined using the MTT (3-(4,5-dimethylthiazol-2-yl)-2,5- diphenyltetrazolium bromide) method, according to the manufacturer’s instructions (Sigma-Aldrich, St. Louis, MO, USA). The results were presented as percent of control data, and concentration required for 50% inhibition of cell viability (IC50) was calculated.

[3] = system: neuroblastoma Neuro2a cells; assay: Cell viability (cytotoxicity) assay, MTT; assay type: cell-based; conditions: up to 100 µM
Protocol: as §1, §2

[4] = system: ROS formation in Neuro2a cells treated with 6-OHDA; assay: ROS level analysis in 6-OHDA-treated cells; assay type: cell-based; conditions: for Reduction of ROS level in 6-OHDA-treated cells / Effect on ROS formation in 6-OHDA-treated cells: 10 µM, 6-OHDA 50 µM, 30 min
Protocol: (§3) Cell suspensions (1 × 10^3 cells/well) were incubated with compound solutions (10 µM) for 1 h. Then, 6-OHDA at a concentration of 50 µM was added in each well, and cells were incubated for 30 min. In other experiments, cells were incubated with PQ at a concentration of 500 µM for 30 min and 1 h. Cells incubated without 6-OHDA/PQ and compounds, and with 6-OHDA/PQ only, were used as positive and negative controls, respectively. To study ROS formation, 20 µL of 2,7-dichlorodihydrofluorescein diacetate solution (Molecular Probes, Eugene, OR, USA) was added to each well, such that the final concentration was […], and the microplate was incubated for an additional 10 min at 37 °C. The intensity of dichlorofluorescein fluorescence was measured with plate reader PHERAstar FS (BMG Labtech, Ortenberg, Germany) at λex = 485 nm, and λem = 518 nm. The data were processed by MARS Data Analysis v. 3.01R2 (BMG Labtech, Ortenberg, Germany). The results were presented as a percentage of positive control data.

[5] = system: ROS formation in Neuro2a cells treated with paraquat (PQ); assay: ROS level analysis in PQ-treated cells; assay type: cell-based; conditions: for Decrease of ROS formation in PQ-treated cells: added 1 h before PQ (500 µM, 1 h); for Effect on ROS formation in PQ-treated cells: added 1 h before PQ (500 µM)
Protocol: as §3, with “Cell suspensions (1 × 10^3 cells/well) were incubated with compound solutions (10 µM) for 1 h.” left out

[6] = system: Neuro2a cells treated with 6-OHDA; assay: 6-Hydroxydopamine-induced in vitro model of Parkinson's disease, cell viability (MTT); assay type: cell-based; conditions: for Effect on 6-OHDA-treated cell viability: 10 µM; for Neuroprotective effect in 6-OHDA model at tenfold reduced concentration: 1 µM (concentration reduced tenfold)
Protocol: The neuroprotective activities of compounds in 6-hydroxydopamine-induced cell model of Parkinson’s disease were examined, as described previously.
Neuroblastoma Neuro2a line cells (1 × 10^3 cells/well) were treated with 50 µM of 6-hydroxydopamine (Sigma-Aldrich, St. Louis, MO, USA) for 1 h and, after that, the investigated compounds were added to the neuroblastoma cell suspension at a concentration of 1 and 10 µM. In the other case, the substances were added to the cells 1 h before the addition of the neurotoxin. Cells incubated without 6-OHDA and compounds, and with 6-OHDA only, were used as positive and negative controls, respectively. After 24 h, viability of cells was measured using the MTT method. The results were presented as a percent of positive control data.

[7] = system: Neuro2a cells treated with PQ; assay: Paraquat-induced in vitro model of Parkinson's disease, cell viability (MTT); assay type: cell-based; conditions: added 1 h before PQ (500 µM)
Protocol: Neuroblastoma Neuro2a line cells (1 × 10^3 cells/well) were treated with compounds at concentrations of 1 and 10 µM for 1 h, and then 500 µM of paraquat (Sigma-Aldrich, St. Louis, MO, USA) was added to the neuroblastoma cell suspension. Cells incubated without paraquat and compounds, and with paraquat only, were used as positive and negative controls, respectively. The viability of cells was measured after 24 h using the MTT method. The results were presented as percent of positive control data.

[8] = cited from earlier work
PC12 cells [9] = conditions: pre-treating for 3 h; cited from earlier work
[10] = system: MPTP-treated neuroblastoma cells; conditions: cited from earlier work
[11] = system: dopaminergic neuronal cell death in mouse PD model, nigral neurons, SH-SY5Y cells; conditions: cited from earlier work
KB tumor cells = conditions: read-out: Cytotoxic activity IC50; cited from earlier work
A 549 tumor cells = conditions: read-out: Cytotoxic activity IC50; cited from earlier work
Candida albicans = conditions: cited from earlier work
[12] = system: osteoclast differentiation; conditions: cited from earlier work
PC12 cells [13] = conditions: cited from earlier work
[14] = cited from earlier work; remark: listed apart in the source
HL-60 tumor cells = conditions: read-out: Cytotoxic activity IC50; cited from earlier work
A-549 tumor cells = conditions: read-out: Cytotoxic activity IC50; cited from earlier work
P-388 tumor cells = conditions: read-out: Cytotoxic activity IC50; cited from earlier work
[15] = compound added 1 h after 6-OHDA
[16] = read-out: DPPH scavenger activity IC50
[17] = compound added 1 h before 6-OHDA

CC(=O)NCC(=O)c1c[nH]c2cc(O)ccc12 [Compound 1, 6-hydroxy-N-acetyl-β-oxotryptamine]
DPPH radicals scavenged [1]: 48%
IC50 at 24 h [2]: > 100 µM
Cytotoxicity against Neuro2a cells [3]: not cytotoxic; also recorded: non-cytotoxic
Reduction of ROS level in 6-OHDA-treated cells [4]: 18%
Decrease of ROS formation in PQ-treated cells ([5]; 10 µM): 35%

NCCc1cc(O)c(O)cc1O [6-OHDA, 6-hydroxydopamine, reference compound]
Increase of ROS level in Neuro2a cells by the neurotoxin ([4]; 30 min after addition to the cell suspension): 30%

Cc1cc(O)c(C)c(O)c1C(=O)O [Compound 2, 3-methylorsellinic acid]
DPPH radicals scavenged [1]: 10%
IC50 at 24 h [2]: > 100 µM
Cytotoxicity against Neuro2a cells [3]: not cytotoxic; also recorded: non-cytotoxic
Effect on 6-OHDA-treated cell viability [6, 15]: no neuroprotective effect
Effect on viability of PQ-treated cells [7]: did not exhibit any protective effect
Reduction of ROS level in 6-OHDA-treated cells [4]: 30%
Effect on ROS formation in PQ-treated cells [5]: reduced ROS formation

cryptoechinulin D
IC50 [8, 16]: 23.6 µM

OCc1cc(O)c(Cc2cc(O)ccc2O)c(Cl)c1O [Terrestrol G]
IC50 ([8]; read-out: DPPH-scavenging IC50): 4.1 µM

COc1ccc2[nH]cc(CCNC(C)=O)c2c1 [Compound 1a, Melatonin, reference compound]
Effect on 6-OHDA-treated cell viability [6, 15]: did not increase the viability
Effect on 6-OHDA-treated cell viability [6, 17]: did not increase the viability; also recorded: ineffective
Effect on ROS formation in 6-OHDA-treated cells [4]: decreased ROS formation in the 6-OHDA-treated neuronal cell stronger in comparison with 1
Decrease of ROS formation in PQ-treated cells ([5]; 10 µM): 22%
Viability of PC12 cells in 6-OHDA-induced PD model (PC12 cells [9]): increased viability of the cells, and prevented apoptosis
Caspase-3 enzyme activity, DNA fragmentation factor 45 cleavage and DNA fragmentation [10]: diminished

COC(=O)[C@]12Oc3ccc(-c4ccc5c(c4O)C(=O)C4=C(O)C[C@@H](C)[C@H](O)[C@@]4(C(=O)OC)O5)c(O)c3C(=O)C1=C(O)C[C@@H](C)[C@@H]2O [Secalonic acid A]
Protection against MPTP-induced dopaminergic neuronal cell death [11]: protected

COc1c(-c2ccccc2)cc(OC)c2c1oc1cc(O)c(O)cc12 [Compound 5, 4″-dehydroxycandidusin A]
DPPH radicals scavenged [1]: 49%
EC50 ([1]; concentration of DPPH radical scavenging at 50%): 101 ± 2.8 µM
IC50 at 24 h [2]: 78.9 ± 1.9 µM
Neuroprotective effect in 6-OHDA model at tenfold reduced concentration [6]: neuroprotective effect was not preserved
Reduction of ROS level in 6-OHDA-treated cells [4]: 34%
Decrease of ROS formation in PQ-treated cells ([5]; 1 µM): 19%
Decrease of ROS formation in PQ-treated cells ([5]; 10 µM): 40%
IC50 (KB tumor cells): 22.7 µM
IC50 (A 549 tumor cells): 34 µM

C[n+]1ccc(-c2cc[n+](C)cc2)cc1 [PQ, paraquat]
Increase of ROS levels in Neuro2a cells by the neurotoxin ([5]; 1 h after adding to the cell suspension): 39%
Effect on ROS formation in Neuro2a cells ([5]; after 30 min): insignificant

neoechinulin E
IC50 [8, 16]: 46 µM

CN1C(=O)C(Cc2c(O)cccc2O)NC(=O)C1Cc1ccccc1 (stereo not drawn) [Compound 6, mactanamide]
DPPH radicals scavenged [1]: 15%
IC50 at 24 h [2]: > 100 µM
Cytotoxicity against Neuro2a cells [3]: not cytotoxic; also recorded: non-cytotoxic
Neuroprotective effect in 6-OHDA model at tenfold reduced concentration [6]: neuroprotective effect was preserved
Effect on viability of PQ-treated cells [7]: did not show any neuroprotective activity
Reduction of ROS level in 6-OHDA-treated cells [4]: 30%
Decrease of ROS formation in PQ-treated cells ([5]; 1 µM): 32%
Decrease of ROS formation in PQ-treated cells ([5]; 10 µM): 37%
Activity against Candida albicans (Candida albicans): fungistatic activity
Influence on osteoclast differentiation [12]: influence on osteoclast differentiation without any cytotoxicity

COc1c(-c2ccc(O)c(O)c2)cc(OC)c2c1oc1cc(O)c(O)cc12 [Candidusin B, reference compound]
DPPH radical scavenging ([8]; 100 µg/mL): 59%

C[C@H]1CO[C@]2(C)Oc3cc(O)c4c(c3C[C@H]12)O[C@@]1(C)OC[C@H](C)[C@H]1C4 [Xyloketal B]
Free radical scavenging in DPPH assay [8]: scavenged free radicals
Protection of PC12 cells against ischemia-induced cell injury and MPTP-induced neurotoxicity (PC12 cells [13]): protected

COc1cc(O)c(C)c2c1COC(C)C2 (stereo not drawn) [Compound 3, 8-methoxy-3,5-dimethylisochroman-6-ol]
IC50 at 24 h [2]: > 100 µM
Cytotoxicity against Neuro2a cells [3]: not cytotoxic; also recorded: non-cytotoxic
Effect on viability of PQ-treated cells [7]: did not exhibit any protective effect
Reduction of ROS level in 6-OHDA-treated cells [4]: 45%
Effect on ROS formation in PQ-treated cells [5]: reduced ROS formation
DPPH Radical Scavenging % at 100 µM [14]: 62.0 ± 4.6 [16] %

CN1C(=O)[C@]23CC4=CC=C[C@H](O)[C@H]4N2C(=O)[C@@]1(CO)SS3 [Gliotoxin]
IC50 [8, 16]: 5.2 µM

COc1c(-c2ccc(O)cc2)cc(OC)c2c1oc1cc(O)c(O)cc12 [Compound 4, candidusin A]
DPPH radicals scavenged [1]: 32%
IC50 at 24 h [2]: 75.7 ± 5.6 µM
Effect on 6-OHDA-treated cell viability [6, 17]: had no effect
Effect on viability of PQ-treated cells [7]: did not have any effect
Effect on ROS formation in 6-OHDA-treated cells [4]: did not have any effect
Decrease of ROS formation in PQ-treated cells ([5]; 10 µM): 27%
IC50 (HL-60 tumor cells): 77.6 µM
IC50 (A-549 tumor cells): 19.3 µM
IC50 (P-388 tumor cells): 46.8 µM
